In patent publication US20110239332A1, “PROPAGATION OF SWITCHGRASS AND MISCANTHUS” (priority 2008, published 2011):

Columns and labels:
switchgrass shoots [1] = details: 8 weeks (12 weeks to plant), 29° C., BAP as only plant hormone; cited from earlier work
switchgrass shoots [2] = assay: In vitro shoot multiplication of switchgrass in culture media; assay type: cell-based, Panicum virgatum L.
Description: A drawback of the use of known propagation conditions is a limited shoot multiplication rate. […] Alexandrova described how to multiply up to 500 shoots from one plant in 8 weeks (12 weeks to plant) at 29° C. and used only one plant hormone Benzylaminopurine (BAP) for multiplication of switchgrass shoots (Alexandrova et al. 1996). However, it has been discovered that 31° C. is a preferable temperature for multiplication of switchgrass shoots. It has also been discovered that liquid medium is preferable for increased multiplication. Applicants optimized multiplication of Switchgrass shoots with a combination of several plant hormones Benzylaminopurine+Naphthaleneacetic acid+Thidiazuron+Paclobutrazol (BAP+NAA+TDZ+PBZ).
It was discovered that an increase in the amount of 6 micro-elements restored growth to shoots and prevented shoot death and, in particular, an increase in the amount of CuSO4.7H2O added to the media increased multiplication rates increased up to about 7× every 3 weeks. MS media contains 0.025 mg/L CuSO4.7H2O. An increase of up to about 10× every 3 weeks in multiplication rate was achieved when shoots were broken apart every 2-3 weeks. […]

Miscanthus shoots = assay: In vitro shoot multiplication of Miscanthus in culture media; assay type: cell-based, Miscanthus × giganteus; details: high TDZ (1.65 mg/L) compared with about 0.25 mg/L TDZ, media at 31° C.
Description: In propagating Miscanthus stem nodes in culture media, Nielsen used high amounts of Thidiazuron (TDZ) (1.65 mg/L), which is a cost limiting hormone additive in shoot multiplication growth media (Nielsen et. al. 1993; Nielsen et. al. 1995).
Stems of actively growing Miscanthus × giganteus having dormant nodes were harvested and sterilized using 1.5% sodium hypochlorite (25% bleach) solution followed by three rinses using sterile water. Stem segments comprising nodes were cut to 3 cm long and then cut longitudinally down the center of the each stem. The prepared stem portions were then placed under growth conditions of 50 μE of light and a 16 h day. The temperature was 31° C. Stem segments were grown in […] Petri plates for solid culture, however any suitable sterile container can be used for solid or liquid culture. Time between sub-culturing was 14-21 days. Shoots were cut to 3-4 cm in length when sub-culturing.
The media used for the above-described growth conditions comprised MS medium plus vitamins (full strength) (Phytotechnologies™ Product ID-M519), 30 g/L sucrose (87.7 mM), […] MgCl2 (750 mg/L of MgCl2.6H2O), pH 5.6 for semi-solid media, […], and 6 g/L agar. The following hormones were added after autoclaving of the media. […]

SMILES: c1ccc(CNc2ncnc3[nH]cnc23)cc1 [BAP, Benzylaminopurine]
- shoots multiplied from one plant (switchgrass shoots [1]): up to 500 shoots

SMILES: O.O.O.O.O.O.O.O=S(=O)([O-])[O-].[Cu+2] [CuSO4.7H2O]
- shoot multiplication rate (switchgrass shoots [2]; increased CuSO4.7H2O, shoots broken apart every 2-3 weeks): about 10 × every 3 weeks
- shoot multiplication rate (switchgrass shoots [2]; increased amount of CuSO4.7H2O added to the media (MS media contains 0.025 mg/L)): about 7 × every 3 weeks

SMILES: O=C(Nc1ccccc1)Nc1cnns1 [TDZ, Thidiazuron]
- shoot thickness and shoot production (Miscanthus shoots): multiplied shoots were thinner and shoot production was less
